Data taken from patent US12528826B2, “[1,4]oxazepino[2,3-c]quinolinone derivatives as BCL6 inhibitors” (Cancer Research Technology Limited, priority 2019, dated 2026).

The compounds below were run against T1, Trx-6×His-BCL6 (human BCL6 BTB domain covering amino-acid sequence 5-129) (Homo sapiens, UniProt P41182) (assay: HTRF assay (BCL6 / BCOR peptide)). Details: 1 nM Trx-6×His-BCL6, 300 nM BCOR-AF633 peptide, 2 hours incubation at room temperature.
T1 construct: made in house
Format: binding
Procedure: After 2 hours incubation at room temperature the plate was read on a Pherastar FSX (BMG Labtech) plate reader equipped with 337 nm laser excitation filter, a first emission filter at 620 nm and a second emission filter at 665 nm. The % inhibition at each concentration was calculated by normalising FRET ratio to the appropriate high (DMSO with all reagents) and low (DMSO without BCL6) controls.

| SMILES | HTRF avg pIC50 |
| --- | --- |
| C[C@H]1CN(c2ncc(Cl)c(Nc3ccc4c(c3)c3c(c(=O)n4C)OCC(F)(F)[C@H](C4CC4)N3)n2)CCC1(F)F (single isomer, unassigned) [Example 14a, (S)-10-((5-chloro-2-((S)-4,4-difluoro-3-methylpiperidin-1-yl)pyrimidin-4-yl)amino)-2-cyclopropyl-3,3-difluoro-7-methyl-1,2,3,4-tetrahydro-[1,4]oxazepino[2,3-c]quinolin-6(7H)-one or (S)-10-((5-chloro-2-((R)-4,4-difluoro-3-methylpiperidin-1-yl)pyrimidin-4-yl)amino)-2-cyclopropyl-3,3-difluoro-7-methyl-1,2,3,4-tetrahydro-[1.4]oxazepino[2,3-c]quinolin-6(7H)-one] | 7.81 |
| CC(=O)N[C@H]1C[C@@H](C)CN(c2ncc(Cl)c(Nc3ccc4c(c3)c3c(c(=O)n4C)OCC(F)(F)[C@H](C4CC4)N3)n2)C1 [Example 1f, N-((3S,5R)-1-(5-chloro-4-(((S)-2-cyclopropyl-3,3-difluoro-7-methyl-6-oxo-1,2,3,4,6,7-hexahydro-[1,4]oxazepino[2,3-c]quinolin-10-yl)amino)pyrimidin-2-yl)-5-methylpiperidin-3-yl)acetamide] | 8.60 |

Same assay, conditions: 1 nM Trx-6×His-BCL6, 300 nM BCOR-AF633 peptide, 2 hours incubation at room temperature; read-out: HTRF avg pIC50 (converted)

| SMILES | IC50 [nM] |
| --- | --- |
| CC1CC(CC(=O)N2CCC2)CN(c2ncc(Cl)c(Nc3ccc4c(c3)c3c(c(=O)n4C)OCC(F)(F)[C@H](C4CC4)N3)n2)C1 (single isomer, unassigned) [Example 12x16a] | 2.04 |
| CC1CC(CC(=O)N2CCC2)CN(c2ncc(Cl)c(Nc3ccc4c(c3)c3c(c(=O)n4C)OCC(F)(F)[C@H](C4CC4)N3)n2)C1 (single isomer, unassigned) [Example 12x16b] | 5.37 |
| CC1CC(CC(=O)N2CC(F)(F)C2)CN(c2ncc(Cl)c(Nc3ccc4c(c3)c3c(c(=O)n4C)OCC(F)(F)[C@H](C4CC4)N3)n2)C1 (single isomer, unassigned) [Example 12x17a] | 3.98 |
| CC1CC(CC(=O)N2CC(F)(F)C2)CN(c2ncc(Cl)c(Nc3ccc4c(c3)c3c(c(=O)n4C)OCC(F)(F)[C@H](C4CC4)N3)n2)C1 (single isomer, unassigned) [Example 12x17b] | 13.2 |
| Cn1c(=O)c2c(c3cc(Nc4nc(N5CC(F)(F)C5)ncc4Cl)ccc31)N[C@@H](C1CC1)C(F)(F)CO2 [Example 1a, (S)-10-((5-chloro-2-(3,3-difluoroazetidin-1-yl)pyrimidin-4-yl)amino)-2-cyclopropyl-3,3-difluoro-7-methyl-1,2,3,4-tetrahydro-[1,4]oxazepino[2,3-c]quinolin-6(7H)-one] | 10.2 |
| Cn1c(=O)c2c(c3cc(Nc4nc(N5CCN(C6CC6)C(=O)C5)ncc4Cl)ccc31)N[C@@H](C1CC1)C(F)(F)CO2 [Example 1b, (S)-10-((5-chloro-2-(4-cyclopropyl-3-oxopiperazin-1-yl)pyrimidin-4-yl)amino)-2-cyclopropyl-3,3-difluoro-7-methyl-1,2,3,4-tetrahydro-[1,4]oxazepino[2,3-c]quinolin-6(7H)-one] | 1.95 |
| C[C@H]1CN(c2ncc(Cl)c(Nc3ccc4c(c3)c3c(c(=O)n4C)OCC(F)(F)[C@H](C4CC4)N3)n2)CC(=O)N1C [Example 1c, (S)-10-((5-chloro-2-((S)-3,4-dimethyl-5-oxopiperazin-1-yl)pyrimidin-4-yl)amino)-2-cyclopropyl-3,3-difluoro-7-methyl-1,2,3,4-tetrahydro-[1,4]oxazepino[2,3-c]quinolin-6(7H)-one] | 2.34 |
| Cn1c(=O)c2c(c3cc(Nc4nc(NCC(C)(C)O)ncc4Cl)ccc31)N[C@@H](C1CC1)C(F)(F)CO2 [Example 1d, (S)-10-((5-chloro-2-((2-hydroxy-2-methylpropyl)amino)pyrimidin-4-yl)amino)-2-cyclopropyl-3,3-difluoro-7-methyl-1,2,3,4-tetrahydro-[1,4]oxazepino[2,3-c]quinolin-6(7H)-one] | 3.63 |
| Cn1c(=O)c2c(c3cc(Nc4nc(N5C[C@H]6C[C@@H]5CO6)ncc4Cl)ccc31)N[C@@H](C1CC1)C(F)(F)CO2 [Example 1e, (S)-10-((2-((1R,4R)-2-oxa-5-azabicyclo[2.2.1]heptan-5-yl)-5-chloropyrimidin-4-yl)amino)-2-cyclopropyl-3,3-difluoro-7-methyl-1,2,3,4-tetrahydro-[1,4]oxazepino[2,3-c]quinolin-6(7H)-one] | 3.24 |

Other lines, results leading:

| IC50 [nM] | SMILES |
| --- | --- |
| 46.8 | CCC1CCN(c2ncc(Cl)c(Nc3ccc4c(c3)c3c(c(=O)n4C)OCC(F)(F)[C@H](C4CC4)N3)n2)C1 (mixture of isomers) [Example 11y, (S)-10-((5-chloro-2-((R)-3-ethylpyrrolidin-1-yl)pyrimidin-4-yl)amino)-2-cyclopropyl-3,3-difluoro-7-methyl-1,2,3,4-tetrahydro-[1,4]oxazepino[2,3-c]quinolin-6(7H)-one:(S)-10-((5-chloro-2-((S)-3-ethylpyrrolidin-1-yl)pyrimidin-4-yl)amino)-2-cyclopropyl-3,3-difluoro-7-methyl-1,2,3,4-tetrahydro-[1,4]oxazepino[2,3-c]quinolin-6(7H)-one (1:1)] |
| 13.2 | Cn1c(=O)c2c(c3cc(Nc4nc(N5CCCC(C)(F)C5)ncc4Cl)ccc31)N[C@@H](C1CC1)C(F)(F)CO2 (mixture of isomers) [Example 11z, (S)-10-((5-chloro-2-((R)-3-fluoro-3-methylpiperidin-1-yl)pyrimidin-4-yl)amino)-2-cyclopropyl-3,3-difluoro-7-methyl-1,2,3,4-tetrahydro-[1,4]oxazepino[2,3-c]quinolin-6(7H)-one:(S)-10-((5-chloro-2-((S)-3-fluoro-3-methylpiperidin-1-yl)pyrimidin-4-yl)amino)-2-cyclopropyl-3,3-difluoro-7-methyl-1,2,3,4-tetrahydro-[1,4]oxazepino[2,3-c]quinolin-6(7H)-one (1:1)] |
| 6.31 | Cn1c(=O)c2c(c3cc(Nc4nc(N5CCC(C)(O)C5)ncc4Cl)ccc31)N[C@@H](C1CC1)C(F)(F)CO2 (mixture of isomers) [Example 12a, (S)-10-((5-chloro-2-((R)-3-hydroxy-3-methylpyrrolidin-1-yl)pyrimidin-4-yl)amino)-2-cyclopropyl-3,3-difluoro-7-methyl-1,2,3,4-tetrahydro-[1,4]oxazepino[2,3-c]quinolin-6(7H)-one:(S)-10-((5-chloro-2-((S)-3-hydroxy-3-methylpyrrolidin-1-yl)pyrimidin-4-yl)amino)-2-cyclopropyl-3,3-difluoro-7-methyl-1,2,3,4-tetrahydro-[1,4]oxazepino[2,3-c]quinolin-6(7H)-one (1:1)] |
| 9.55 | CC1CN(c2ncc(Cl)c(Nc3ccc4c(c3)c3c(c(=O)n4C)OCC(F)(F)[C@H](C4CC4)N3)n2)CCS1 (mixture of isomers) [Example 12f, (S)-10-((5-chloro-2-((R)-2-methylthiomorpholino)pyrimidin-4-yl)amino)-2-cyclopropyl-3,3-difluoro-7-methyl-1,2,3,4-tetrahydro-[1,4]oxazepino[2,3-c]quinolin-6(7H)-one:(S)-10-((5-chloro-2-((S)-2-methylthiomorpholino)pyrimidin-4-yl)amino)-2-cyclopropyl-3,3-difluoro-7-methyl-1,2,3,4-tetrahydro-[1,4]oxazepino[2,3-c]quinolin-6(7H)-one (1:1)] |
| 2.04 | Cn1c(=O)c2c(c3cc(Nc4nc(N5CCN6CCCC6C5)ncc4Cl)ccc31)N[C@@H](C1CC1)C(F)(F)CO2 (mixture of isomers) [Example 12h, (S)-10-((5-chloro-2-((S)-hexahydropyrrolo[1,2-a]pyrazin-2(1H)-yl)pyrimidin-4-yl)amino)-2-cyclopropyl-3,3-difluoro-7-methyl-1,2,3,4-tetrahydro-[1,4]oxazepino[2,3-c]quinolin-6(7H)-one:(S)-10-((5-chloro-2-((R)-hexahydropyrrolo[1,2-a]pyrazin-2(1H)-yl)pyrimidin-4-yl)amino)-2-cyclopropyl-3,3-difluoro-7-methyl-1,2,3,4-tetrahydro-[1,4]oxazepino[2,3-c]quinolin-6(7H)-one (1:1)] |
| 1.29 | Cn1c(=O)c2c(c3cc(Nc4nc(N5CCN6C(=O)CCC6C5)ncc4Cl)ccc31)N[C@@H](C1CC1)C(F)(F)CO2 (mixture of isomers) [Example 12i, (S)-10-((5-chloro-2-((R)-6-oxohexahydropyrrolo[1,2-a]pyrazin-2(1H)-yl)pyrimidin-4-yl)amino)-2-cyclopropyl-3,3-difluoro-7-methyl-1,2,3,4-tetrahydro-[1,4]oxazepino[2,3-c]quinolin-6(7H)-one:(S)-10-((5-chloro-2-((S)-6-oxohexahydropyrrolo[1,2-a]pyrazin-2(1H)-yl)pyrimidin-4-yl)amino)-2-cyclopropyl-3,3-difluoro-7-methyl-1,2,3,4-tetrahydro-[1,4]oxazepino[2,3-c]quinolin-6(7H)-one (1:1)] |
| 2.63 | Cn1c(=O)c2c(c3cc(Nc4nc(N5CC(O)CC6(CCC6)C5)ncc4Cl)ccc31)N[C@@H](C1CC1)C(F)(F)CO2 (mixture of isomers) [Example 12j, (S)-10-((5-chloro-2-((R)-8-hydroxy-6-azaspiro[3.5]nonan-6-yl)pyrimidin-4-yl)amino)-2-cyclopropyl-3,3-difluoro-7-methyl-1,2,3,4-tetrahydro-[1,4]oxazepino[2,3-c]quinolin-6(7H)-one:(S)-10-((5-chloro-2-((S)-8-hydroxy-6-azaspiro[3.5]nonan-6-yl)pyrimidin-4-yl)amino)-2-cyclopropyl-3,3-difluoro-7-methyl-1,2,3,4-tetrahydro-[1,4]oxazepino[2,3-c]quinolin-6(7H)-one (1:1)] |
| 0.776 | CC(=O)N1CC2CCC(C1)N2c1ncc(Cl)c(Nc2ccc3c(c2)c2c(c(=O)n3C)OCC(F)(F)[C@H](C3CC3)N2)n1 (single isomer, unassigned) [Example 7a] |
| 1.62 | CC(=O)N1C2CCC1CN(c1ncc(Cl)c(Nc3ccc4c(c3)c3c(c(=O)n4C)OCC(F)(F)[C@H](C4CC4)N3)n1)C2 (single isomer, unassigned) [Example 7b] |
